According to patent US6982277B2, “P53 inhibitors and therapeutic use of the same” (The Board of Trutees of the University of Illinois, priority 1999, dated 2006):
“Also recorded” adds a separate entry of the source.

What was measured:
p53 [1] = experiment: suppression of p53-dependent transcriptional activation (lacZ, X-gal staining) in ConA cells treated with doxorubicin; format: cell-based, mouse; settings: 0.2 μg/ml doxorubicin, 24 hours; test compounds about 10 to about 20 μM
p53 [2] = experiment: 14C-thymidine incorporation in tissues of gamma-irradiated mice (autoradiograms); format: in vivo, mouse; settings: 10 Gy; single i.p. injection 2.2 mg/kg five minutes before irradiation
Experimental: Four-week-old p53-deficient mice and p53 wild-type (wt) mice were whole body gamma irradiated (10 Gy). Pifithrin-alpha was injected in one of the p53 wild-type animals five minutes before irradiation. ^14C-thymidine (10 mCi per animal) was injected intraperitoneally into each mouse 8 hours after irradiation. The mice were sacrificed 24 hours after irradiation and whole body sectioned (25 μm thick) using cryostatic microtome were prepared and exposed to X-ray film to monitor the distribution of ^14C in the tissue. FIG. 8 presents autoradiograms of representative sections. Arrows indicate ^14C-thymidine incorporation in the skin and intestine.

tumor = tumor volume in C57BL mice treated with cyclophosphamide; format: in vivo, mouse; settings: CTX at days 0, 1, and 2, sixteen days
Experimental: FIG. 15 is a plot of tumor volume vs. days for C57BL mice treated with cyclophosphamide (CTX), with and without administration of PFT-β. The mice were treated with CTX at days 0, 1, and 2, and tumor volume was monitored for sixteen days.

[3] = test system: p53-deficient tumor xenografts; experiment: therapy response of p53-deficient tumors in mice; format: in vivo, mouse; settings: mouse, in vivo
Description: The above-described tests using PFT-α and PFT-β illustrate the therapeutic use of temporary p53 inhibitors to reduce the side effects of radiation therapy or chemotherapy for human cancers that have lost functional p53.

p53 [4] = experiment: p53 protein in UV-irradiated ConA cells (immunoblotting, two-dimensional gel, nuclear and cytoplasmic fractions); format: cell-based, mouse
Experimental: PFT-α was added to the cells before UV treatment and total cell lysates were prepared 18 hours later.
FIG. 6(d) illustrates that PFT-α changes the nuclear and cytoplasmic distribution of p53. Nuclear and cytoplasmic fractions were isolated from UV-treated ConA cells 6 hours after UV irradiation. p53 and p21^waf1 proteins were detected by immunoblotting. […] In particular, results of a gel shift assay using cell lysates from either untreated or UV-irradiated ConA cells grown in medium containing PFT-α are shown. […] The decline in the amount of bound DNA is proportional to the overall decrease in p53 content in the presence of PFT-α.

p53 [5] = experiment: long-term survival and cancer development of mice after whole body radiation; format: in vivo; settings: 30 survivors rescued from lethal gamma irradiation, seven months after irradiation
Experimental: Both wild-type (wt) mice and p53-deficient mice were irradiated. One group of the wild-type mice were treated with PFT-α. […] In contrast, fifteen untreated wild-type mice died within 100 days. The p53-deficient mice were unaffected for about 125 days, then all expired over the next 25–30 days.
Suppression of p53 typically results in the survival of cells that otherwise are eliminated by p53, which can increase the risk of new cancer development. For example, p53-deficient mice are extremely sensitive to radiation-induced tumorigenesis. […] Thus, temporary suppression of p53 activity is different from p53 deficiency in terms of cancer predisposition.

p53 [6] = experiment: survival of mice after whole-body gamma irradiation; format: in vivo, mouse; settings: 2.2 mg/kg i.p. five minutes prior to irradiation
Experimental: In particular, FIG. 7 illustrates that pifithrin-alpha protects mice from radiation-induced death. In this test, two different strains of mice (C57BL and Balb(c)) were treated with lethal and sublethal doses of whole-body gamma radiation. A comparison was made between (i) untreated unirradiated mice, (ii) unirradiated mice that received a single intraperitoneal (i.p.) injection of PFT-α, (iii) untreated gamma-irradiated mice, and (iv) mice injected intraperitoneally with PFT-α immediately before gamma irradiation.
In the plots of FIG. 7, whole-body gamma irradiated mice (60 total) were divided into four groups. Ten mice from each group were injected i.p. with pifithrin-alpha (2.2 mg/kg) five minutes prior to irradiation. […] The experiments were repeated at least three times with 10 mice per each experimental subgroup.

[7] = toxicity of chemotherapeutics with p53 inhibitor; settings: mouse, in vivo
p53 [8] = experiment: tests and experiments of FIGS. 1–15 repeated using PFT-β
Description: The results of these tests are illustrated in attached FIGS. 1–16. These figures, in general, are based on tests performed on compounds of structural formulae (V) and (VI). In the following Figures, test results illustrated for compound (V), i.e., PFT-α, were repeated for compound (VI), i.e., PFT-β.
(§1) As previously stated, the tests and experiments set forth in FIGS. 1–15 using PFT-α were repeated using PFT-β.

[9] = toxicity comparison (FIG. 16); settings: compared with PFT-α
Experimental: Then, a p53 inhibitor was applied in a concentration of 1 μM to 20 μM to the test cells in the presence of the p53 activator. Cytotoxicity of the p53 inhibitors also was determined by standard assays. An estimation of antiapoptotic activity of the p53 inhibitor compounds was based on an ability to suppress apoptotic cell death in standard cell systems sensitive to p53-dependent apoptosis (i.e., mouse embryonic fibroblasts transformed with Ela+ras, line C8, described by S. W. Lowe et al., Cell, 74, pp. 957–968 (1993)). p53 dependence of the compound activity was analyzed by testing its effect on p53-deficient cells (i.e., radiosensitivity or drug sensitivity of p53−/− mouse embryonic fibroblasts transformed with Ela+ras, line A4, described by Lowe et al., 1993).
as §1

Row | Compound | suppression of p53-dependent lacZ expression (X-gal) (p53 [1]) | p53-mediated growth arrest in vivo (14C-thymidine incorporation) (p53 [2]) | tumor growth (tumor volume) (tumor) | efficacy of chemo- or radiation therapy of p53 deficient mouse tumors [3] | nuclear and cytoplasmic distribution of p53 (p53 [4]; 6 hours after UV irradiation) | phosphorylation / post-translational modifications of p53 (p53 [4]; after DNA-damaging treatments) | tumors or pathological lesions in survivors / tumor incidence in irradiated animals (p53 [5]) | survival at higher, lethal doses of irradiation (p53 [6]) | toxicity of chemotherapeutics [7] | test results compared with PFT-α (p53 [8]) | toxicity [9]
1 | N=c1sc2c(n1CC(=O)c1ccc(I)cc1)CCCC2 [86B10, 2-[2-imino-4,5,6,7-tetrahydro-1,3-benzothiazol-3(2H)-yl]-1-(4-iodophenyl)-1-ethanone] | similar, but weaker, p53-inhibition, effect than PFT-α | – | – | – | – | – | – | – | – | – | –
2 | Cc1ccc(-c2cn3c4c(sc3n2)CCCC4)cc1 [PFT-β, 2-(4-methylphenyl)-5,6,7,8-tetrahydrobenzo[d]imidazo[2,1-b]thiazole] | – | suppress p53-dependent radiation-induced growth arrest in rapidly proliferating mouse tissues | substantial decrease in tumor growth | do not reduce the efficacy of chemo- or radiation therapy of p53 deficient mouse tumors | reduce nuclear accumulation of p53 | do not effect either post-translational modifications of p53 or the DNA binding affinity of p53 | do not result in a high incidence of tumors in irradiated animals | rescue mice from lethal doses of gamma radiation using a single i.p. injection | reduce the toxicity of chemotherapeutics | essentially identical to test results using PFT-α; also recorded: essentially identical to the results from the tests using PFT-α | substantially lower than the toxicity of PFT-α
